System: 282377-053-R-J1-PDC complex spheroid viability
Test: Anticancer human tumor 282377-053-R-J1-PDC patient-derived colon adenocarcinoma cell line growth inhibition [POLQ]
Details: for IC50: curve of first compound; for viability, T/C: stronger effect = lower value
Summary of the method: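 Complex spheroid viability model combining PDC tumour cells with endothelial (HUVEC) and MSC stromal cells. Novobiocin, ART-558 or RP6685 were tested singly and in combination with standard and investigational anticancer drugs. Each was titrated in half-log steps from near clinical Cmax, or from 10 microM where Cmax was unknown.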

[1] = second compound 0.0316 µM, first compound 0.0316 µM
[2] = second compound 0.0316 µM, first compound 0.1 µM
[3] = second compound 0.0316 µM, first compound 0.316 µM
[4] = second compound 0.0316 µM, first compound 1 µM
[5] = second compound 0.0316 µM, first compound 3.16 µM
[6] = second compound 0.0316 µM, first compound 10 µM
[7] = second compound 0.1 µM, first compound 0.0316 µM
[8] = second compound 0.1 µM, first compound 0.1 µM
[9] = second compound 0.1 µM, first compound 0.316 µM
[10] = second compound 0.1 µM, first compound 1 µM
[11] = second compound 0.1 µM, first compound 3.16 µM
[12] = second compound 0.1 µM, first compound 10 µM
[13] = second compound 0.316 µM, first compound 0.0316 µM
[14] = second compound 0.316 µM, first compound 0.1 µM
[15] = second compound 0.316 µM, first compound 0.316 µM
[16] = second compound 0.316 µM, first compound 1 µM
[17] = second compound 0.316 µM, first compound 3.16 µM
[18] = second compound 0.316 µM, first compound 10 µM
[19] = second compound 1 µM, first compound 0.0316 µM
[20] = second compound 1 µM, first compound 0.1 µM
[21] = second compound 1 µM, first compound 0.316 µM
[22] = second compound 1 µM, first compound 1 µM
[23] = second compound 1 µM, first compound 3.16 µM
[24] = second compound 1 µM, first compound 10 µM
[25] = second compound 3.16 µM, first compound 0.0316 µM
[26] = second compound 3.16 µM, first compound 0.1 µM
[27] = second compound 3.16 µM, first compound 0.316 µM
[28] = second compound 3.16 µM, first compound 1 µM
[29] = second compound 3.16 µM, first compound 3.16 µM
[30] = second compound 3.16 µM, first compound 10 µM
[31] = second compound 10 µM, first compound 0.0316 µM
[32] = second compound 10 µM, first compound 0.1 µM
[33] = second compound 10 µM, first compound 0.316 µM
[34] = second compound 10 µM, first compound 1 µM
[35] = second compound 10 µM, first compound 3.16 µM
[36] = second compound 10 µM, first compound 10 µM
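Further: spheroids exposed to compounds for seven days.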
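Wherever viability, T/C is given: 100% = DMSO vehicle control viability.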

## C=CC(=O)N1CCN(c2nc(=O)n(-c3c(C)ccnc3C(C)C)c3nc(-c4c(O)cccc4F)c(F)cc23)C(C)C1 (stereo not given) + Cc1cccc(N(C)C(=O)C2C(O)CCN2c2nc(C)cc(C(F)(F)F)c2C#N)c1
Second compound 0.0316 µM
  IC50: > 10 µM
Second compound 0.1 µM
  IC50: > 10 µM
Second compound 0.316 µM
  IC50: > 10 µM
Second compound 1 µM
  IC50: > 10 µM
Second compound 3.16 µM
  IC50: > 10 µM
Second compound 10 µM
  IC50: > 10 µM
[1]
  viability, T/C: 94.8%
[2]
  viability, T/C: 84.6%
[3]
  viability, T/C: 119%
[4]
  viability, T/C: 89.3%
[5]
  viability, T/C: 97.3%
[6]
  viability, T/C: 80.5%
[7]
  viability, T/C: 102%
[8]
  viability, T/C: 108%
[9]
  viability, T/C: 93.4%
[10]
  viability, T/C: 83.5%
[11]
  viability, T/C: 90.4%
[12]
  viability, T/C: 88.7%
[13]
  viability, T/C: 91.2%
[14]
  viability, T/C: 106%
[15]
  viability, T/C: 106%
[16]
  viability, T/C: 89.4%
[17]
  viability, T/C: 74.1%
[18]
  viability, T/C: 79.3%
[19]
  viability, T/C: 79.2%
[20]
  viability, T/C: 92.7%
[21]
  viability, T/C: 89%
[22]
  viability, T/C: 80.8%
[23]
  viability, T/C: 85.7%
[24]
  viability, T/C: 76.6%
[25]
  viability, T/C: 88.5%
[26]
  viability, T/C: 99%
[27]
  viability, T/C: 71.9%
[28]
  viability, T/C: 88.5%
[29]
  viability, T/C: 84%
[30]
  viability, T/C: 89.4%
[31]
  viability, T/C: 76.7%
[32]
  viability, T/C: 80.8%
[33]
  viability, T/C: 89.7%
[34]
  viability, T/C: 86.8%
[35]
  viability, T/C: 85.8%
[36]
  viability, T/C: 70.7%

## CC(C)n1c(=O)n(C)c2cnc3cc(F)c(-c4ccc(OCCCN5CCCCC5)nc4)cc3c21 + Cc1cccc(N(C)C(=O)C2C(O)CCN2c2nc(C)cc(C(F)(F)F)c2C#N)c1
Second compound 0.0316 µM
  IC50: > 10 µM
Second compound 0.1 µM
  IC50: > 10 µM
Second compound 0.316 µM
  IC50: > 10 µM
Second compound 1 µM
  IC50: > 10 µM
Second compound 3.16 µM
  IC50: > 10 µM
Second compound 10 µM
  IC50: > 10 µM
[1]
  viability, T/C: 97.8%
[2]
  viability, T/C: 129%
[3]
  viability, T/C: 99%
[4]
  viability, T/C: 114%
[5]
  viability, T/C: 109%
[6]
  viability, T/C: 88.3%
[7]
  viability, T/C: 95.2%
[8]
  viability, T/C: 123%
[9]
  viability, T/C: 98.2%
[10]
  viability, T/C: 97.5%
[11]
  viability, T/C: 129%
[12]
  viability, T/C: 84.8%
[13]
  viability, T/C: 99.6%
[14]
  viability, T/C: 92.3%
[15]
  viability, T/C: 96%
[16]
  viability, T/C: 89.5%
[17]
  viability, T/C: 99.1%
[18]
  viability, T/C: 73.8%
[19]
  viability, T/C: 105%
[20]
  viability, T/C: 99.8%
[21]
  viability, T/C: 97.7%
[22]
  viability, T/C: 105%
[23]
  viability, T/C: 106%
[24]
  viability, T/C: 93.2%
[25]
  viability, T/C: 81.5%
[26]
  viability, T/C: 102%
[27]
  viability, T/C: 96.4%
[28]
  viability, T/C: 98.9%
[29]
  viability, T/C: 97.1%
[30]
  viability, T/C: 92.7%
[31]
  viability, T/C: 93.2%
[32]
  viability, T/C: 87.3%
[33]
  viability, T/C: 110%
[34]
  viability, T/C: 81.9%
[35]
  viability, T/C: 120%
[36]
  viability, T/C: 82.1%

## CC1COCCN1c1cc(-c2ccnn2C)c2ccnc(-c3ccn[nH]3)c2n1 (stereo not given) + Cc1cccc(N(C)C(=O)C2C(O)CCN2c2nc(C)cc(C(F)(F)F)c2C#N)c1
Second compound 0.0316 µM
  IC50: 0.381 µM
Second compound 0.1 µM
  IC50: 0.551 µM
Second compound 0.316 µM
  IC50: 0.289 µM
Second compound 1 µM
  IC50: 0.362 µM
Second compound 3.16 µM
  IC50: 0.479 µM
Second compound 10 µM
  IC50: 0.634 µM
[1]
  viability, T/C: 91.3%
[2]
  viability, T/C: 86.4%
[3]
  viability, T/C: 52.6%
[4]
  viability, T/C: 32.6%
[5]
  viability, T/C: 26.3%
[6]
  viability, T/C: 24.5%
[7]
  viability, T/C: 81.3%
[8]
  viability, T/C: 80.9%
[9]
  viability, T/C: 60.6%
[10]
  viability, T/C: 37.4%
[11]
  viability, T/C: 29.4%
[12]
  viability, T/C: 23%
[13]
  viability, T/C: 97%
[14]
  viability, T/C: 90.2%
[15]
  viability, T/C: 44.6%
[16]
  viability, T/C: 38.4%
[17]
  viability, T/C: 24.9%
[18]
  viability, T/C: 21.9%
[19]
  viability, T/C: 93.5%
[20]
  viability, T/C: 68.5%
[21]
  viability, T/C: 54.8%
[22]
  viability, T/C: 36.2%
[23]
  viability, T/C: 27.2%
[24]
  viability, T/C: 22.7%
[25]
  viability, T/C: 83.9%
[26]
  viability, T/C: 70.4%
[27]
  viability, T/C: 61.5%
[28]
  viability, T/C: 33.1%
[29]
  viability, T/C: 29.2%
[30]
  viability, T/C: 22.5%
[31]
  viability, T/C: 78.8%
[32]
  viability, T/C: 71%
[33]
  viability, T/C: 71.6%
[34]
  viability, T/C: 35.8%
[35]
  viability, T/C: 32.2%
[36]
  viability, T/C: 20.8%

## CCc1cc2c(N3CCc4c(cc(Cn5ccnc5)cc4-c4cn(C)nc4C(F)(F)F)C3=O)ccnc2c(OC)n1 + Cc1cccc(N(C)C(=O)C2C(O)CCN2c2nc(C)cc(C(F)(F)F)c2C#N)c1
Second compound 0.0316 µM
  IC50: > 10 µM
Second compound 0.1 µM
  IC50: > 10 µM
Second compound 0.316 µM
  IC50: > 10 µM
Second compound 1 µM
  IC50: > 10 µM
Second compound 3.16 µM
  IC50: > 10 µM
Second compound 10 µM
  IC50: > 10 µM
[1]
  viability, T/C: 108%
[2]
  viability, T/C: 94.1%
[3]
  viability, T/C: 91%
[4]
  viability, T/C: 110%
[5]
  viability, T/C: 104%
[6]
  viability, T/C: 106%
[7]
  viability, T/C: 93.4%
[8]
  viability, T/C: 90.9%
[9]
  viability, T/C: 85.8%
[10]
  viability, T/C: 91.4%
[11]
  viability, T/C: 103%
[12]
  viability, T/C: 121%
[13]
  viability, T/C: 95%
[14]
  viability, T/C: 94.9%
[15]
  viability, T/C: 89.8%
[16]
  viability, T/C: 86.1%
[17]
  viability, T/C: 104%
[18]
  viability, T/C: 93.8%
[19]
  viability, T/C: 95.2%
[20]
  viability, T/C: 87.6%
[21]
  viability, T/C: 104%
[22]
  viability, T/C: 101%
[23]
  viability, T/C: 107%
[24]
  viability, T/C: 109%
[25]
  viability, T/C: 98.9%
[26]
  viability, T/C: 91.6%
[27]
  viability, T/C: 101%
[28]
  viability, T/C: 99.6%
[29]
  viability, T/C: 115%
[30]
  viability, T/C: 116%
[31]
  viability, T/C: 98.9%
[32]
  viability, T/C: 95.6%
[33]
  viability, T/C: 108%
[34]
  viability, T/C: 96.4%
[35]
  viability, T/C: 111%
[36]
  viability, T/C: 124%

## COc1ccc([C@@H](O)c2cc(-c3ncnc4cc(N5CCOCC5)ccc34)c(F)cc2Cl)nn1 + Cc1cccc(N(C)C(=O)C2C(O)CCN2c2nc(C)cc(C(F)(F)F)c2C#N)c1
Second compound 0.0316 µM
  IC50: > 10 µM
Second compound 0.1 µM
  IC50: > 10 µM
Second compound 0.316 µM
  IC50: > 10 µM
Second compound 1 µM
  IC50: > 10 µM
Second compound 3.16 µM
  IC50: > 10 µM
Second compound 10 µM
  IC50: > 10 µM
[1]
  viability, T/C: 104%
[2]
  viability, T/C: 115%
[3]
  viability, T/C: 108%
[4]
  viability, T/C: 103%
[5]
  viability, T/C: 78.3%
[6]
  viability, T/C: 62.4%
[7]
  viability, T/C: 106%
[8]
  viability, T/C: 106%
[9]
  viability, T/C: 89.1%
[10]
  viability, T/C: 110%
[11]
  viability, T/C: 72.2%
[12]
  viability, T/C: 75.1%
[13]
  viability, T/C: 110%
[14]
  viability, T/C: 90%
[15]
  viability, T/C: 97.6%
[16]
  viability, T/C: 93.1%
[17]
  viability, T/C: 102%
[18]
  viability, T/C: 62.2%
[19]
  viability, T/C: 111%
[20]
  viability, T/C: 80.1%
[21]
  viability, T/C: 97.7%
[22]
  viability, T/C: 83.2%
[23]
  viability, T/C: 103%
[24]
  viability, T/C: 53.1%
[25]
  viability, T/C: 122%
[26]
  viability, T/C: 98.9%
[27]
  viability, T/C: 108%
[28]
  viability, T/C: 87.8%
[29]
  viability, T/C: 101%
[30]
  viability, T/C: 68.5%
[31]
  viability, T/C: 87.9%
[32]
  viability, T/C: 87.6%
[33]
  viability, T/C: 109%
[34]
  viability, T/C: 76.6%
[35]
  viability, T/C: 64.3%
[36]
  viability, T/C: 54.3%

— PubChem BioAssay AID1963852 (Molecular Pharmacology Branch, DTP, NCI, 2024)
